How the values were obtained:
[1] = test system: TLR7/8; test: TLR7/8-mediated IL-6 expression in THP-1 cells; type: cell-based, human; conditions: FIG. 4C
Experimental: RAW264.7 cells (ATCC, Manassas, Va., USA), which are mouse macrophages, were cultured in low-glucose DMEM (Thermo Fisher Scientific Inc.) supplemented with 10% FBS, 100 IU/ml penicillin and 100 μg/ml streptomycin in a culture system. Human monocyte THP1 cells were cultured in RPMI 1640 (Thermo Fisher Scientific Inc.) supplemented with 10% FBS, 100 IU/ml penicillin and 100 μg/ml streptomycin and then differentiation thereof into macrophages was induced using 10 nM phorbol 12-myristate 13-acetate (PMA) (Sigma-Aldrich Co. LLC.) for 24 hours. CL075, R848, CpG-ODN and Poly(I:C) were purchased from InvivoGen (San Diego, Calif., USA), and LPS was purchased from Sigma-Aldrich Co. (St. Louis, Mo., USA).
Cytotoxicity in RAW 264.7 cells was tested by treatment with these compounds at a concentration of 12.5 to 50 μM. […] The inhibitory effect of TAC5-a on TLR-mediated signaling was confirmed by measuring TNF-α secretion through ELISA in THP1-derived macrophages. […] In addition, in order to evaluate the antagonistic effect of TAC5-a on endosomal TLR activation, cells were cultured along with this compound in the presence of R848 (TLR7/8) or CL075 (TLR7/8), imiquimod (IMQ; TLR7), TL8 (TLR8), poly(I:C) (TLR3) or CpG ODN (TLR9) (FIGS. 4E, 4F and 4G).

[2] = test system: RAW 264.7 cells; test: MTT assay, cytotoxicity in RAW 264.7 cells; conditions: FIG. 4B
Experimental: RAW264.7 cells (ATCC, Manassas, Va., USA), which are mouse macrophages, were cultured in low-glucose DMEM (Thermo Fisher Scientific Inc.) supplemented with 10% FBS, 100 IU/ml penicillin and 100 μg/ml streptomycin in a culture system.
Cytotoxicity in RAW 264.7 cells was tested by treatment with these compounds at a concentration of 12.5 to 50 μM.

[3] = test system: C57BL/6 mice, IMQ-induced psoriasis; test: IMQ-induced psoriasis mouse model; type: in vivo; conditions: FIG. 5F
Experimental: The therapeutic efficacy of TAC5-a was evaluated in a psoriasis mouse model and a SLE mouse model. Psoriasis was induced in 6-7 week old C57BL/6 mice by topically applying 42 mg of IMQ cream (5%) to the shaved back skin of the mice for 6 consecutive days (FIG. 5A). TAC5-a was injected daily at doses of 50, 100 and 200 nmol/g and the effect thereof on severity was analyzed.
Histological analysis and immunochemical staining were performed on skin samples of mouse dorsal lesions. The sample was fixed with 4% paraformaldehyde solution, then embedded in paraffin and cut to 7 μm on a glass slide. The sections were stained with hematoxylin and eosin (H&E) and the thickness of the dermis and epidermis were measured. The thickness of skin was measured with a Leica DMi8 fluorescence microscope using a Leica LAS X Hardware Configurator (Leica Microsystems GmbH, Wetzlar, Germany). IMQ-mediated skin inflammation was evaluated by immunohistochemistry (IHC) using a primary antibody that recognizes CD68 (ab31630, 1:200 dilution) as a macrophage marker. […] The skin was stained with hematoxylin and eosin (H&E) in order to evaluate the thickness of the epidermis (yellow arrow) and dermis (green arrow) in IMQ-induced psoriasis mice and thereby to observe the histopathological changes of skin lesions in each group (FIG. 5G) Immunohistochemical analysis of skin lesions in each group was performed using a primary antibody that recognizes CD68.

SMILES | TLR7/8-mediated IL-6 expression [1] | cytotoxicity at 50 μM [2] | thickness of the epidermis and the dermis (H&E) [3]
c1ccc(COc2cccnc2Nc2ccccc2)cc1 [TAC5-c, 3-(benzyloxy)-N-phenylpyridin-2-amine] | inhibited | slight cytotoxicity | 
NCCOCC(Oc1cccnc1N)c1ccccc1 (centres unmarked) [TAC5-e, 3-(2-(2-aminoethoxy)-1-phenylethoxy)pyridine-2-amine] | inhibited |  | 
CN(Cc1cnc2nc(N)nc(N)c2n1)c1ccc(C(=O)N[C@@H](CCC(=O)O)C(=O)O)cc1 [MTX, methotrexate, reference compound] |  |  | therapeutic effects similar to those of the treatment group were observed
CCOCC(Oc1cccnc1N)c1ccccc1 (centres unmarked) [TAC5-d, 3-(2-ethoxy-1-phenylethoxy)pyridine-2-amine] | inhibited |  | 
